biological target: T1, AKT1-E17K (Homo sapiens, UniProt P31749, E17K); assay: NanoBRET Target Engagement (TE) Assay; type: cell-based
T1 construct: host or cells: HEK-293 (ATCC CRL-1573)
Description: The NanoBRET™ Target Engagement (TE) Intracellular Kinase Assays are based on the NanoBRET™ System (Promega Corporation), an energy transfer technique designed to measure molecular proximity in living cells. The NanoBRET™ TE Assays measure the apparent affinity of test compounds by competitive displacement of the NanoBRET™ tracer compound, which is a cell permeable molecule engineered to be reversibly bound to a NanoLuc® luciferase-kinase fusion expressed in cells. For compound screening, when a test compound binds to the selected kinase, the BRET signal is attenuated. […] All cells were evaluated for viability prior to transfection and optimization of the transfection was done prior to experimentation. […] Following transfection, cells were washed and resuspended in Opti-MEM. NanoBRET assays were performed in white, 384-well plates (Corning) at a density of […]. All example compounds were prepared as concentrated stock solutions in DMSO (Sigma-Aldrich). Compounds are dissolved in DMSO to make 10 mM stock solution. […] A Labcyte ECHO 550 compound dispenser was used to facilitate compound transfer directly to cells. Cells were equilibrated for 2 hr with energy transfer probes and example compound prior to BRET measurements. […] For target engagement analysis, the energy transfer probes were added to the cells at concentrations optimized for the target in question (AKT E17K). Following compound incubation, NanoBRET NanoGlo Substrate (Promega Cat #N157D) and Extracellular Nanoluc Inhibitor (Promega Cat #N235C) was added according to the manufacturer's recommended protocol, and luminescence was measured on Envision Reader (Perkin Elmer) Multimode Luminometer equipped with 450 nmBPfilter (donor) and 600 nmLPfilter (acceptor), using 0.5 s integration time. Milli-BRET units (mBU) are calculated by multiplying the raw BRET values by 1000. Apparent tracer affinity values (EC50) were determined using the sigmoidal dose-response (variable slope). Competitive displacement data were then plotted and data were fit to determine the EC50 value for each example compound.

T1 sequence (P31749 whole entry E17K): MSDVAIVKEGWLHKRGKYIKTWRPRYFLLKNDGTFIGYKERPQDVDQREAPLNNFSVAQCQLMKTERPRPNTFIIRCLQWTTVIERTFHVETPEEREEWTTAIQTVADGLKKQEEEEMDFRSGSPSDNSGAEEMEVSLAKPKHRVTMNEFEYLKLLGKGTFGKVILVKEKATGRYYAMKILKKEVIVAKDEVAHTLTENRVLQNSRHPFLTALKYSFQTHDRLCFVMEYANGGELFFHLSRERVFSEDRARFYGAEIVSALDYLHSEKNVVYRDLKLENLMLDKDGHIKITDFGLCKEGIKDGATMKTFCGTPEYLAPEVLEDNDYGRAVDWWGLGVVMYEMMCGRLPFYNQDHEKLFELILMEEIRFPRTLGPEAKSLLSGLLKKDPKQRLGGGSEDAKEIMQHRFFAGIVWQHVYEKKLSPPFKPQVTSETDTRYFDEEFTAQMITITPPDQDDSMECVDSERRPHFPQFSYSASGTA

Compound | IC50 [nM]
Cn1cc(-c2ccc3nc(-c4cccnc4N)n(-c4ccc(CN5CCN(C(=O)c6ccc(O)c(C=O)c6)CC5)cc4)c3n2)ccc1=O [Example 44, 5-(4-(4-(2-(2-aminopyridin-3-yl)-5-(1-methyl-6-oxo-1,6-dihydropyridin-3-yl)-3H-imidazo[4,5-b]pyridin-3-yl)benzyl)piperazine-1-carbonyl)-2-hydroxybenzaldehyde] | > 600
Nc1ncccc1-c1nc2ccc(-c3cccc(=O)[nH]3)nc2n1-c1ccc(CN2CCN(C(=O)c3ccc(O)c(C=O)c3)CC2)cc1 [Example 45, 5-(4-(4-(2-(2-Aminopyridin-3-yl)-5-(6-oxo-1,6-dihydropyridin-2-yl)-3H-imidazo[4,5-b]pyridin-3-yl)benzyl)piperazine-1-carbonyl)-2-hydroxybenzaldehyde] | > 600
Nc1ncccc1-c1nc2ccc(-c3cccc(=O)[nH]3)nc2n1-c1ccc(CN2CCN(C(=O)c3ccc(C=O)c(O)c3)CC2)cc1 [Example 46, 4-(4-(4-(2-(2-Aminopyridin-3-yl)-5-(6-oxo-1,6-dihydropyridin-2-yl)-3H-imidazo[4,5-b]pyridin-3-yl)benzyl)piperazine-1-carbonyl)-2-hydroxybenzaldehyde] | > 600
Nc1ncccc1-c1nc2ccc(-c3ccccc3)nc2n1-c1ccc(CN2CCC(NC(=O)c3cccc(C=O)c3O)CC2)cc1 [Example 49, N-(1-(4-(2-(2-aminopyridin-3-yl)-5-phenyl-3H-imidazo[4,5-b]pyridin-3-yl)benzyl)piperidin-4-yl)-3-formyl-2-hydroxybenzamide] | 15 to 60
Nc1ncccc1-c1nc2ccc(N3CCOCC3)nc2n1-c1ccc(CN2CCC(NC(=O)c3ccc(O)c(C=O)c3)CC2)cc1 [Example 52, N-(1-(4-(2-(2-Aminopyridin-3-yl)-5-morpholino-3H-imidazo[4,5-b]pyridin-3-yl)benzyl)piperidin-4-yl)-3-formyl-4-hydroxybenzamide] | 15 to 60
Nc1ncccc1-c1nc2ccc(N3CCOCC3)nc2n1-c1ccc(CN2CCC(NC(=O)c3ccc(C=O)c(O)c3)CC2)cc1 [Example 53, N-(1-(4-(2-(2-Aminopyridin-3-yl)-5-morpholino-3H-imidazo[4,5-b]pyridin-3-yl)benzyl)piperidin-4-yl)-4-formyl-3-hydroxybenzamide] | 60 to 600
Nc1ncccc1-c1nc2cc(-c3ccccc3)cnc2n1-c1ccc(CN2CCN(c3ccc(C=O)c(O)c3)CC2)cc1 [Example 54, 4-(4-(4-(2-(2-Aminopyridin-3-yl)-6-phenyl-3H-imidazo[4,5-b]pyridin-3-yl)benzyl)piperazin-1-yl)-2-hydroxybenzaldehyde] | 60 to 600

The next lines start with the values.

IC50 [nM] | Compound
60 to 600 | Nc1ncccc1-c1nc2ccc(-c3ccccc3)nc2n1-c1ccc(CN2CCC(Nc3ccc(C=O)c(O)c3)CC2)cc1 [Example 47, 4-((1-(4-(2-(2-Aminopyridin-3-yl)-5-phenyl-3H-imidazo[4,5-b]pyridin-3-yl)benzyl)piperidin-4-yl)amino)-2-hydroxybenzaldehyde]
60 to 600 | Nc1ncccc1-c1nc2ccc(-c3ccccc3)nc2n1-c1ccc(CN2CCC(Nc3ccc(O)c(C=O)c3)CC2)cc1 [Example 48, 5-((1-(4-(2-(2-Aminopyridin-3-yl)-5-phenyl-3H-imidazo[4,5-b]pyridin-3-yl)benzyl)piperidin-4-yl)amino)-2-hydroxybenzaldehyde]
15 to 60 | Nc1ncccc1-c1nc2ccc(-c3ccccc3)nc2n1-c1ccc(CN2CCC(Nc3cccc(C=O)c3O)CC2)cc1 [Example 50, 3-((I-(4-(2-(2-Aminopyridin-3-yl)-5-phenyl-3H-imidazo[4,5-b]pyridin-3-yl)benzyl)piperidin-4-yl)amino)-2-hydroxybenzaldehyde]
60 to 600 | Nc1ncccc1-c1nc2ccc(-c3ccccc3)nc2n1-c1ccc(CN2CCC(Nc3cccc(O)c3C=O)CC2)cc1 [Example 51, 2-((1-(4-(2-(2-Aminopyridin-3-yl)-5-phenyl-3H-imidazo[4,5-b]pyridin-3-yl)benzyl)piperidin-4-yl)amino)-6-hydroxybenzaldehyde]
